Like-named read-outs stand apart in the source and are kept apart here.
Key:
[1] = molecular target: T1, full-length human Tau (hTau40) (Homo sapiens, UniProt P10636); assay: Tau oligomerization inhibition assay (heparin-induced, thioflavin S fluorescence); format: biochemical
T1 construct: The full-length human Tau (hTau40) was expressed in a transformed E. coli BL21 (DE3) strain; made in house; host or cells: E. coli BL21 (DE3)
Experimental: Tau oligomerization inhibition assay was performed at 37 °C in 96-well plates by monitoring thioflavin-S fluorescence at 520 nm after excitation at 440 nm using a microplate reader (POLARstar Omega system, BMG Labtech, Paris, France). The Tau oligomerization process was induced by heparin. […] The plates were shaken at 200 rpm for 10 s before each measurement. The real value of fluorescence at the plateau was determined using SciDAVis v1.23 software. Data were fitted to the SciDAVis built-in ExpGrowth equation by means of nonlinear least-squares regression analysis. Y = Y0 + A × exp(x/t)(1)
The unscaled Levenberg–Marquardt algorithm was used, and initial values were given to Y0, A, and t. The final Y0 value of the model corresponds to the plateau value. The plateau values were then used to calculate the Tau oligomerization inhibition percentage. The IC50 for each compound was calculated from the scatter plot of Tau oligomerization inhibition (in percentage) as a function of log10 of compound concentration. The IC50 value (in µM) thus corresponds to ten raised to the power of […].

[2] = molecular target: T2, Tau protein (full-length human Tau, hTau40) (Homo sapiens, UniProt P10636); assay: Tau intrinsic fluorescence quenching, modified Stern–Volmer binding parameters; conditions: 5 µM Tau, buffer B pH 6.8, mean ± SD; for Kd: read-out: Equilibrium Binding Constants to Tau, KD
T2 construct: The full-length human Tau (hTau40) was expressed in a transformed E. coli BL21 (DE3) strain; made in house; host or cells: E. coli BL21 (DE3)
Experimental: Fluorescence measurements were performed with a Horiba Jobin Yvon FluoroMax-3 spectrofluorometer. […] For experiments, the excitation wavelength was fixed at 275 nm, and the emission spectra were recorded between 280 nm and 500 nm at room temperature. The inner filter effects were corrected according to Lakowicz as follows:F = Fobs × exp{(Aem + Aex)/2}(2) where Fobs and F are the observed and corrected fluorescence values at the emission wavelength of 303 nm. Aex and Aem are the absorptions at the excitation and emission wavelengths, respectively, calculated with A = ε.l.C, in which ε is the extinction coefficient of Tau, l is the path length of cuvette, and C is Tau concentration.
The total fluorescence in the absence of quencher (F0) is given by:F0 = F0a + F0b(4) where 0 refers to the fluorescence intensity in the absence of quencher.
In the presence of quencher, we defined fa as the fraction of the initial fluorescence of Tau accessible to compounds:fa = F0a/(F0a + F0b)(5)
Therefore, the intensity of the accessible fraction (fa) is decreased according to the Stern–Volmer equation, whereas the buried fraction is not quenched, as given by:F = {F0a/(1 + K.[Q])} + F0b(6)
Then, subtraction of Equations (6) and (4) yields:ΔF = F0 − F = F0a × {K.[Q]/(1 + K.[Q])}(7)
At last, inversion of Equation (7) followed by division into Equation (4) yields:F0/ΔF = {1/(fa.K.[Q])} + 1/fa(8)
We applied this modified form of the Stern–Volmer equation to graphically determine the values of fa and K. For our experiments, we plotted F0/ΔF against 1/[Q], then we determined the fa value at the point of intersection with the y-axis, while the slope represented (faK)^−1.

U87 glioblastoma cells = assay: MTT cell viability assay, U87; format: cell-based, human; conditions: Homo sapiens; U87, 72 h, MTT; mean ± SEM; read-out: IC50 (metabolic activity)
Experimental: (§1) Cells harvested from sub-confluent monolayers were seeded at 15,000 cells per mL in a 96-well microtiter plate (Cambridge Technology, Labège, France) and cultured for 24 h under standard conditions. Standard medium was then replaced by fresh medium containing no drugs or compounds at different concentrations. The surviving cells were quantified after 72 h by the MTT assay, according to the manufacturer’s instructions. Briefly, 20 µL of 3-(4,5-diMethylThiazol-2-yl)-2,5diphenyl Tetrazolium bromide (MTT) solution at 5 mg.mL^−1 was added to cells for 3 h at 37 °C. The supernatant was discarded and replaced by 100 µL of dimethyl sulfoxide to dissolve formazan crystals. The absorbance was then read at 600 nm by spectrophotometry. For all concentrations of a given compound, cell viability was expressed as the percentage of the ratio between the mean absorbance of treated cells and the mean absorbance of untreated cells. Three independent experiments were performed, and the data were expressed as percentage of survival (using the untreated cells as 100%) and subjected to statistical analysis (n = 3). The IC50 was calculated using the Chou and Talalay method.

U251 glioblastoma cells = assay: MTT cell viability assay, U251; format: cell-based; conditions: Homo sapiens, U-251, U251, 72 h, mean ± SEM, read-out: IC50 (metabolic activity)
Experimental: as §1

U138 glioblastoma cells = assay: MTT cell viability assay, U138; format: cell-based; conditions: Homo sapiens, U138, 72 h, mean ± SEM, read-out: IC50 (metabolic activity)
Experimental: as §1

T98G glioblastoma cells = assay: MTT cell viability assay, T98G; format: cell-based; conditions: Homo sapiens, 72 h, mean ± SEM, read-out: IC50 (metabolic activity)
Experimental: as §1

[3] = test system: Caco-2 colon adenocarcinoma cells; assay: MTT cell viability assay, Caco-2; format: cell-based; conditions: Homo sapiens, Caco-2 (not expressing Tau), 72 h, mean ± SEM, read-out: IC50 (metabolic activity)
Experimental: as §1

mature Tau aggregates = molecular target: T3, mature Tau aggregates (Homo sapiens, UniProt P10636); assay: Dissolution of preformed (mature) Tau aggregates, ThS fluorescence; format: biochemical; conditions: 10, 30 and 100 µM added to ThS-labelled aggregates after 8 h, 37 °C
T3 construct: The full-length human Tau (hTau40) was expressed in a transformed E. coli BL21 (DE3) strain; made in house; host or cells: E. coli BL21 (DE3)
Experimental: Moreover, we performed a qualitative study of the ability of QCT and compounds 1, 5, and 9 to dissolve preformed Tau aggregates (Figure 3).
Eight-hour time courses were performed with ThS to monitor heparin-induced Tau aggregation by spectrofluorometry at 520 nm (37 °C), then 10, 30, and 100 µM of compounds (curves b–d) were added to the ThS-labelled Tau aggregates. A control was performed without compound (curve a).

[4] = test system: GBM cells (U87, U251, U138, and T98G); assay: MTT assay across the Tau-expressing GBM cell models; format: cell-based, human
Experimental: as §1

U87 shCTRL cells [5] = assay: Cell cycle by flow cytometry (propidium iodide), U87 shCTRL; format: cell-based, human; conditions: 48 h, compounds 10 µM, NOC 1 µM
Experimental: (§2) Measurements of cell cycle from DNA content were performed by flow cytometry as described before. Briefly, 4.10^5 cells in exponential growth were seeded in 6-well plates. After 24 h, they were treated with 10 µM of compounds for 48 h. Nocodazole was used as a positive control with a concentration of 1 µM. The trypsinized cells were harvested and then centrifuged (1200 rpm, 5 min, at room temperature). The cell pellet was resuspended in 1 mL of PBS 1× at 4 °C, and then an extra 4 mL of cold PBS was added to wash the pellet. Cells were then centrifuged again (1200 rpm, 5 min, at 4 °C). To fixate the cells, the pellet was resuspended in 100 µL of cold 70% ethanol, then an additional 900 µL was added and cells were incubated for 30 min at −20 °C. After that, 9 mL of cold PBS was added, and cells were centrifuged (2000 rpm, 5 min, at 4 °C) to remove ethanol. The cell pellet was then resuspended in the staining mix containing 50 µg.mL^−1 of propidium iodide (Molecular Probes, Paris, France) and 100 µg.mL^−1 of RNAse A (Sigma-Aldrich, Saint-Quentin-Fallavier, France) in PBS for 20 min at room temperature in darkness. Samples were analyzed on a Beckman–Coulter–Gallios flow cytometer using the Kaluza for Gallios Acquisition v1.0 software. Propidium iodide was excited at 488 nm, and fluorescence was analyzed at 620 nm on channel FL-3. For the analysis, there is considerable overlap between early S phase and G1 and between late S phase and G2/M due to broadening of the distribution caused by variability in the staining of the cells and instrumental variability. Therefore, the percentages of cells in the sub-G1, G1, S, and G2/M phases of the cell cycle were calculated using the Watson et al. algorithm for cell cycle analysis in Kaluza for Gallios Analysis v2.1 software. The software automatically adjusted gates based on PI median fluorescence intensity of the cells and their frequency among total cells. The number of cells in each phase was divided by the total number of analyzed cells, and the values were reported as percentage of the total cells for each cell cycle phase.

U87 shTau cells [6] = assay: Cell cycle by flow cytometry (propidium iodide), U87 shTau; format: cell-based, human; conditions: 48 h, compounds 10 µM, NOC 1 µM
Experimental: as §2

U87 shCTRL cells [7] = assay: Mitotic index by high-content imaging, U87 shCTRL; format: cell-based, human; conditions: 48 h, 5-times IC50 of compounds
Experimental: (§3) For scoring mitotic indexes, an automated high-content screening confocal microscopy approach was employed to identify cells undergoing mitosis from a large population of cells. For this, cells nuclei were stained with DAPI. Briefly, fibronectin-coated clear-glass-bottom black 96-well imaging plates were seeded with 100 µL of cell suspension (60,000 cell.mL^−1) in each well, with both U87 shCTRL and U87 ShTau cell lines. Cells were treated with 5-times IC50 of compounds for 48 h, then they were fixated inside the palates with 4% formaldehyde (in PBS pH 7.4) for 20 min at room temperature, permeabilized with PBS-Triton X-100 0.5% for 10 min at room temperature. DNA was then stained with DAPI (10 µg.mL^−1) for 5 min at room temperature and in the darkness. After being washed, cells were kept in PBS at 4 °C and imaged while in PBS. Automated confocal microscopy was carried out using an Opera Phenix (PerkinElmer) high-content screening microscope using a 20× Air/0.4 NA air objective. For each condition, 6 wells were prepared and a total of 61 fields were acquired for each well. Image analysis was performed using Harmony high-content analysis v4.8 software and PhenoLOGIC Machine Learning technology, which uses a learn-by-example approach. As a first step, nuclei were segmented and multiple parameters for these nuclei were calculated using Harmony v4.8 software building blocks. After training, PhenoLOGIC Machine Learning then selects the best parameters to detect nuclei undergoing the M phase of mitosis. From this, the mitotic index of each condition was calculated by dividing the number of cells undergoing mitosis over the total number of cells.

U87 shTau cells [8] = assay: Mitotic index by high-content imaging, U87 shTau; format: cell-based, human; conditions: 48 h, 5-times IC50 of compounds
Experimental: as §3

R3 peptide = test system: R3 peptide; parameters: method as in PMID 34743390; conditions: 10 µM, AFM analysis; cited from earlier work
[9] = 2 µM Tau, heparin-induced, ThS, buffer A pH 6.9, 25 °C per table footnote (37 °C in method), mean ± SD, read-out: Inhibition of Aggregation IC50

T1 sequence (P10636 1-441 isoform P10636-8): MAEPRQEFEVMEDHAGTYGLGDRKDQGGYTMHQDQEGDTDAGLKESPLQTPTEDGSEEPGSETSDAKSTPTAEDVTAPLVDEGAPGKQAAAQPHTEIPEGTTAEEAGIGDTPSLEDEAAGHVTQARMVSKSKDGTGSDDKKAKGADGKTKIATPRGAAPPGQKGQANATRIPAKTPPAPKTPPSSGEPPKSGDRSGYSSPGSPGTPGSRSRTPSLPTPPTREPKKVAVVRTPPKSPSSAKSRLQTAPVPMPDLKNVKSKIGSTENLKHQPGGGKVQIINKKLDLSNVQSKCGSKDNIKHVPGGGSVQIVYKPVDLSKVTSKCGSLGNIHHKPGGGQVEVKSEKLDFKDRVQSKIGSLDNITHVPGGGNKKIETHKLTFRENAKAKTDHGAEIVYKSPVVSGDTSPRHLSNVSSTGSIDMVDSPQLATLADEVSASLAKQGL
T2 sequence (P10636 1-441 isoform P10636-8): as above
T3 sequence (P10636 1-441 isoform P10636-8): as above

| Compound | IC50 [1, 9] [µM] | Equilibrium Binding Constants to Tau, fA (Tyr accessible fraction) [2] | Kd [2] [µM] | IC50 (U87 glioblastoma cells) [µM] | IC50 (U251 glioblastoma cells) [µM] | IC50 (U138 glioblastoma cells) [µM] | IC50 (T98G glioblastoma cells) [µM] | IC50 [3] [µM] | Ability to dissolve mature (preformed) Tau aggregates (mature Tau aggregates) | IC50 ([4]; Homo sapiens, U87, U251, U138, T98G, 72 h MTT, read-out: IC50 among the Tau-expressing GBM cell models) [µM] | efficacy fold higher than 13 and 15 ([4]; GBM cells) | %G1 (cells in G1 phase) (U87 shCTRL cells [5]) [%] | %G2/M (cells in G2/M phase) (U87 shCTRL cells [5]) [%] | %G1 (cells in G1 phase) (U87 shTau cells [6]) [%] | %G2/M (cells in G2/M phase) (U87 shTau cells [6]) [%] | mitotic index (U87 shCTRL cells [7]) [%] | mitotic index (U87 shTau cells [8]) [%] | IC50 [1] [µM] | R3 peptide fibrillation (R3 peptide) |
| --- | --- | --- | --- | --- | --- | --- | --- | --- | --- | --- | --- | --- | --- | --- | --- | --- | --- | --- | --- |
| Nc1nc(-c2ccc3oc(-c4ccccc4)cc(=O)c3c2)cs1 [Compound 1] | 92 ± 9.6 | 0.39 ± 0.08 | 7 ± 2.3 | 22.4 ± 5.2 | 6.7 ± 2.2 | 6.4 ± 1.3 | 4.2 ± 0.7 | 33.2 ± 13.3 | able to dissolve mature Tau aggregates | 4.2 to 22.4 | – | – | – | – | – | – | – | – | – |
| COc1c(-c2cccc(F)c2)oc2ccc3nc(N)sc3c2c1=O [Compound 14] | 11.7 ± 2 | 0.21 ± 0.04 | 4.2 ± 0.3 | 1.1 ± 0.2 | 1.3 ± 0.5 | 1.4 ± 0.2 | 2.7 ± 0.5 | – | – | – | up to 6 fold | – | – | – | – | – | – | – | – |
| COC(=O)Nc1nc2ccc(C(=O)c3cccs3)cc2[nH]1 [NOC, nocodazole, reference compound] | – | – | – | – | – | – | – | – | – | – | – | 10 ± 3 | 82 ± 6 | 9 ± 7 | 77 ± 4 | 9.38 ± 3.55 | 23.0 ± 4.01 | – | – |
| O=c1c(O)c(-c2ccc(O)c(O)c2)oc2cc(O)cc(O)c12 [QCT, quercetin, reference compound] | – | 0.12 ± 0.04 | 2.4 ± 0.6 | > 100 | > 100 | > 100 | > 100 | > 100 | able to dissolve mature Tau aggregates | – | – | – | – | – | – | – | – | 17.3 ± 0.6 | abrogated R3 peptide fibrillation |
